The first assay deals with human α-thrombin (Homo sapiens (Human), UniProt P00734). In words: In vitro assay for determining proteinase inhibition (thrombin Ki).
Settings: not given
It counts as biochemical. The procedure:
NMR determinations were made using 400 MHz field strength. Ki data was obtained according to the procedure described in Lewis, et al. Thromb. […] Reactions sensitive to moisture or air were performed under nitrogen or argon using anhydrous solvents and reagents. […] Typically, the analytical LC-MS system used consisted of a Waters ZQ platform with electrospray ionization in positive ion detection mode with an Agilent 1100 series HPLC with autosampler. The column was usually a Water Xterra MS C18, 3.0×50 mm, 5 μm. The flow rate was 1 mL/min, and the injection volume was 10 μL. UV detection was in the range 210-400 nm. […] Preparative HPLC purifications were usually performed using a mass spectrometry directed system. […] The mobile phases consisted of mixtures of acetonitrile (10-100%) in water containing 0.1% TFA. Flow rates were maintained at 50 mL/min, the injection volume was 1800 μL, and the UV detection range was 210-400 nm. Mobile phase gradients were optimized for the individual compounds. Reactions performed using microwave irradiation were normally carried out using an Emrys Optimizer manufactured by Personal Chemistry, or an Initiator manufactured by Biotage. Concentration of solutions was carried out on a rotary evaporator under reduced pressure. Flash chromatography was usually performed using a Biotage Flash Chromatography apparatus (Dyax Corp.) on silica gel ([…], 60 Å pore size) in pre-packed cartridges of the size noted. ^1H NMR spectra were acquired at 500 MHz spectrometers in CDCl3 solutions unless otherwise noted. Chemical shifts were reported in parts per million (ppm). Tetramethylsilane (TMS) was used as internal reference in CD3Cl solutions, and residual CH3OH peak or TMS was used as internal reference in CD3OD solutions. Coupling constants (J) were reported in hertz (Hz). Chiral analytical chromatography was performed on one of Chiralpak AS, Chiralpak AD, Chiralcel OD, Chiralcel IA, or Chiralcel OJ columns (250×4.6 mm) (Daicel Chemical Industries, Ltd.) with noted percentage of either ethanol in hexane (% Et/Hex) or isopropanol in heptane (% IPA/Hep) as isocratic solvent systems. Chiral preparative chromatography was conducted on one of Chiralpak AS, Chiralpak AD, Chiralcel OD, Ciralcel IA, or Chiralcel OJ columns (20×250 mm) (Daicel Chemical Industries, Ltd.) with desired isocratic solvent systems identified on chiral analytical chromatography or by supercritical fluid (SFC) conditions. Celite® (Fluka) diatomite is diatomaceous earth, and can be referred to as “celite”.
Relevant in vitro assays are referenced in Morrissette, et al., Bioorg. […] The assays were carried out at 25° C. in 0.05 M TRIS buffer pH 7.4, 0.15 M NaCl, 0.1% PEG. Trypsin assays also contained 1 mM CaC12.
Concentrations of stock solutions of Z-GPR-afc were determined from measurements of absorbance at 380 nm of the 7-amino-4-trifluoromethyl coumarin produced upon complete hydrolysis of an aliquot of the stock solution by thrombin.
Activity assays were performed by diluting a stock solution of substrate at least tenfold to a final concentration ≦0.1 Km into a solution containing enzyme or enzyme equilibrated with inhibitor. Times required to achieve equilibration between enzyme and inhibitor were determined in control experiments. Initial velocities of product formation in the absence (Vo) or presence of inhibitor (Vi) were measured. Assuming competitive inhibition, and that unity is negligible compared Km/[S], [I]/e, and [I]/e (where [S], [I], and e respectively represent the total concentrations, of substrate, inhibitor and enzyme), the equilibrium constant (Ki) for dissociation of the inhibitor from the enzyme can be obtained from the dependence of Vo/Vi on [I] shown in the following equation.
The compound `NCc1ccc(Cl)cc1CNC(=O)[C@@H]1CCCN1C(=O)c1cc(-c2ccncc2)c[nH]1` [Compound 13-10, (S)—N-{2-(Aminomethyl)-5-chlorobenzyl)-1-{4-(pyridin-4-yl)-1H-pyrrole-2-carbonyl) pyrrolidine-2-carboxamide-bis(2,2,2-trifluoroacetate)] registered a Ki of 3.4 nM.

The compound `NCc1ccc(Cl)cc1CNC(=O)[C@@H]1CCCN1C(=O)C1(O)CCc2ncccc21` (stereo partly drawn) [Compound 19-4, (2S)-N-{2-(Aminomethyl)-5-chlorobenzyl}-1-(5-hydroxy-6,7-dihydro-5H-cyclopenta[b]pyridine-5-carbonyl)pyrrolidine-2-carboxamide-2,2,2-trifluoroacetate] came in with an inhibition constant Ki of 49 nM.

For the compound `NCc1ccc(Cl)cc1CNC(=O)[C@@H]1CCCN1C(=O)C1CNc2ccccc21` (stereo partly drawn) [Compound 25-5, (2S)-N-{2-(Aminomethyl)-5-chlorobenzyl}-1-(indoline-3-carbonyl)pyrrolidine-2-carboxamide bis(2,2,2-trifluoroacetate)], the Ki came out at 59 nM. This Ki and that of the compound before are within 1.5-fold of each other.

`NCc1ccc(Cl)cc1CNC(=O)[C@@H]1CCN1C(=O)C1(O)CCc2ncccc21` (stereo partly drawn) [Compound 26-12, (2S)-N-{2-(Aminomethyl)-5-chlorobenzyl}-1-(5-hydroxy-6,7-dihydro-5H-cyclopenta[b]pyridine-5-carbonyl)azetidine-2-carboxamide bis(2,2,2-trifluoroacetate)] yielded an inhibitory constant (Ki) of 325 nM.

The assay is the same for the next values; noted with them: 25° C., 0.05 M TRIS buffer pH 7.4, 0.15 M NaCl, 0.1% PEG; competitive inhibition assumed.
`NCc1ccc(Cl)cc1CNC(=O)[C@@H]1CCCN1C(=O)C1NCc2ccccc21` (single isomer, unassigned) [Compound 23-4a, bis(2,2,2-trifluoroacetate)] displayed an inhibition constant (Ki) of 77 nM.

The compound `NCc1ccc(Cl)cc1CNC(=O)[C@@H]1CCCN1C(=O)C1NCc2ccccc21` (single isomer, unassigned) [Compound 23-4b, bis(2,2,2-trifluoroacetate)] showed a Ki of 1.1 nM.

As for `CC(C)(C)[C@@H](CCO)C(=O)N1CCC[C@H]1C(=O)NCc1cc(Cl)ccc1CN` [Compound 1-12, (S)—N-[2-(Aminomethyl)-5-chlorobenzyl]-1-[(R)-2-(2-hydroxyethyl)-3,3-dimethylbutanoyl]pyrrolidine-2-carboxamide-2,2,2-trifluoroacetate], the inhibition constant Ki is 25 nM.

For the compound `CCOC(=O)c1ccc(C(=O)N2CCC[C@H]2C(=O)NCc2cc(Cl)ccc2CN)[nH]1` [Compound 3-5, (S)-Ethyl-5-[2-{(2-(aminomethyl)-5-chlorobenzyl)carbamoyl}-pyrrolidine-1-carbonyl]-1H-pyrrole-2-carboxylate-2,2,2-trifluoroacetate], the affinity, expressed as Ki, was 47 nM.

Take `NCc1ccc(Cl)cc1CNC(=O)[C@@H]1CCCN1C(=O)c1ccc(C(F)(F)F)[nH]1` [Compound 4-5, (S)—N-{2-(Aminomethyl)-5-chlorobenzyl}-1-{5-(trifluoromethyl)-1H-pyrrole-2-carbonyl}pyrrolidine-2-carboxamide]: the affinity, expressed as Ki, was 27 nM.

`NCc1ccc(Cl)cc1CNC(=O)[C@@H]1CCCN1C(=O)c1cc(C(O)c2ccncc2)c[nH]1` (stereo partly drawn) [Compound 6-2, (2S)-N-{2-(Aminomethyl)-5-chlorobenzyl}-1-[4-{hydroxyl(pyridine-4-yl)methyl}-1H-pyrrole-2-carbonyl]pyrrolidine-2-carboxamide-bis(2,2,2-trifluoroacetate)] had a Ki of 21 nM. The Ki values of the last two compounds are within 1.5-fold of each other.

With `NCc1ccc(Cl)cc1CNC(=O)[C@@H]1CCCN1C(=O)c1cc(Cc2ccncc2)c[nH]1` [Compound 7-1, (S)—N-{2-(Aminomethyl)-5-chlorobenzyl}-1-{4-(pyridin-4-ylmethyl)-1H-pyrrole-2-carbonyl}pyrrolidine-2-carboxamide-bis(2,2,2-trifluoroacetate)], the Ki stood at 17 nM.

Compound `NCc1ccc(Cl)cc1CNC(=O)[C@@H]1CCCN1C(=O)c1cc(C(=O)c2cccnc2)c[nH]1` [Compound 8-8, (S)—N-{2-(aminomethyl)-5-chlorobenzyl}-1-(4-nicotinoyl-1H-pyrrole-2-carbonyl)pyrrolidine-2-carboxamide-bis(2,2,2-trifluoro acetate] showed a Ki of 18 nM.

With `NCc1ccc(Cl)cc1CNC(=O)[C@@H]1CCCN1C(=O)c1cc(C(O)c2cccnc2)c[nH]1` (stereo partly drawn) [Compound 9-2, (2S)-N-{2-(Aminomethyl)-5-chlorobenzyl}-1-[4-{hydroxy(pyridine-3-yl)methyl}-1H-pyrrole-2-carbonyl]pyrrolidine-2-carboxamide], the inhibition constant (Ki) was found to be 13 nM.

`NCc1ccc(Cl)cc1CNC(=O)[C@@H]1CCCN1C(=O)c1cc(C(=O)c2ccccn2)c[nH]1` [Compound 10-7, (S)—N-{2-(Aminomethyl)-5-chlorobenzyl}-1-(4-picolinoyl-1H-pyrrole-2-carbonyl) pyrrolidine-2-carboxamide-bis(2,2,2-trifluoroacetate)] had an inhibitory constant (Ki) of 17 nM.

Turning to `NCc1ccc(Cl)cc1CNC(=O)[C@@H]1CCCN1C(=O)c1cc(C(O)c2ccccn2)c[nH]1` (stereo partly drawn) [Compound 11-2, (2S)-N-{2-(Aminomethyl)-5-chlorobenzyl}-1-[4-{hydroxyl(pyridine-2-yl)methyl}-1H-pyrrole-2-carbonyl]pyrrolidine-2-carboxamide], the inhibition constant (Ki) worked out at 9.7 nM.

The compound `NCc1ccc(Cl)cc1CNC(=O)[C@@H]1CCCN1C(=O)c1cc(-c2cccnc2)c[nH]1` [Compound 14-5, (S)—N-{2-(Aminomethyl)-5-chlorobenzyl}-1-{4-(pyridin-3-yl)-1H-pyrrole-2-carbonyl}pyrrolidine-2-carboxamide bis(2,2,2-trifluoroacetate)] yielded a Ki of 22 nM.

In turn, `NCc1ccc(Cl)cc1CNC(=O)[C@@H]1CCCN1C(=O)c1cc(-c2ccccn2)c[nH]1` [Compound 15-8, (S)—N-[{2-(Aminomethyl)-5-chlorobenzyl}-1-{4-(pyridin-2-yl)-1H-pyrrole-2-carbonyl}]pyrrolidine-2-carboxamide bis (2,2,2-trifluoroacetate)] returned an inhibition constant Ki of 22 nM. This counts as double-digit nanomolar.

The compound `CC(C)(C)[C@@H](O)C(=O)N1CCC[C@H]1C(=O)NCc1cc(Cl)ccc1CO` [Compound 17-5, (S)—N-{5-Chloro-2-(hydroxymethyl)benzyl}-1-{(R)-2-hydroxy-3,3-dimethylbutanoyl}pyrrolidine-2-carboxamide] returned a Ki of 3500 nM.

With `NCc1ccc(Cl)cc1CNC(=O)[C@@H]1CCCN1C(=O)C1(O)CCc2cccnc21` (stereo partly drawn) [Compound 20-8, (2S)-N-(2-(Aminomethyl)-5-chlorobenzyl)-1-(7-hydroxy-6,7-dihydro-5H-cyclopenta[b]pyridine-7-carbonyl)pyrrolidine-2-carboxamide-bis(2,2,2-trifluoroacetate)], the affinity, expressed as Ki, was 7.7 nM.

`NCc1ccc(Cl)cc1CNC(=O)[C@@H]1CCCN1C(=O)C1OCc2ccccc21` (stereo partly drawn) [Compound 21-6, (2S)-N-{2-(Aminomethyl)-5-chlorobenzyl}-1-(1,3-dihydroisobenzofuran-1-carbonyl)pyrrolidine-2-carboxamide-2,2,2-trifluoroacetate]: the Ki was 15 nM.

For `NCc1ccc(Cl)cc1CNC(=O)[C@@H]1CCCN1C(=O)C1c2ccccc2CS1(=O)=O` (stereo partly drawn) [Compound 22-10, (2S)-N-{2-(Aminomethyl)-5-chlorobenzyl}-1-(2,2-dioxido-1,3-dihydrobenzo[a]thiophene-1-carbonyl)pyrrolidine-2-carboxamide-2,2,2-trifluoroacetate-2,2,2-trifluoroacetate], the affinity corresponds to a Ki of 400 nM.

Regarding `NCc1ccc(Cl)cc1CNC(=O)[C@@H]1CCCN1C(=O)C1COc2ccccc21` (stereo partly drawn) [Compound 24-8, (2S)-N-{2-(Aminomethyl)-5-chlorobenzyl}-1-(2,3-dihydrobenzofuran-3-carbonyl)pyrrolidine-2-carboxamide-2,2,2-trifluoroacetate], the Ki is 9.2 nM. This Ki lies about 43-fold lower than the previous one.

In turn, `NCc1ccc(Cl)cc1CNC(=O)[C@@H]1CCCN1C(=O)C1(O)CCc2cnccc21` (some centres unmarked) [Compound 27-9] registered a Ki of 20 nM.

The record behind these values is patent US9469608B2, “Thrombin inhibitors” (Merck Sharp & Dohme Corp., priority 2012, dated 2016).
